Data set [1] in a line: LD50, single oral dose, rats. The note with it: rat, in vivo, single oral dose in corn oil containing 15% of the agent, 14-day period.
The next data set concerns male Fisher 344 rat. As to the kind of experiment: Proto IX levels in tissues of rat fed agent for 27 days. It is filed as in vivo. Particulars: feed containing 5000 ppm for 27 days. The text has this:
In another test, a male Fisher 344 rat was fed for 27 days with feed containing 5000 ppm of agent 6c and then sacrificed.
In the foregoing tests of rats and mice the animals were kept on a standard 12 hr. dark-12 hr. light cycle.

The next data set has as its system HeLa cells. As to the kind of experiment: Proto IX production in HeLa cells, extract of cells alone (Example 7). Particulars: Homo sapiens, 100 uM agent, first formula (background-subtracted), read-out: increase in the amount of Proto IX relative to the control. It is filed as cell-based.
In the next data set the test system is SMT-F tumor. As to the kind of experiment: Photodynamic treatment of SMT-F tumor in mice fed the agent (Example 10). Format: in vivo, female DBA/2 mice. The text has this: In this Example preliminary routine dosage experiments, using agent 6c of Example 6, were made, using female DBA/2 mice, four to six weeks old (14-18 grams). For tumor implantation into these animals, SMT-F tumor was aseptically removed from donor animals and cut into 1 mm^3 fragments. These tumor pieces were placed in Hank's Balanced Salt Solution containing penicillin and streptomycin. Tumor pieces were implanted via a torchar into the center of the right flank of shaved mice. […] The skin covering and surrounding the tumor was shaved and depilated two to three hours prior to light treatment.
The light treatment employed red light centered on 630 nm obtained from 1000 watt Xenon arc lamp system (Oriel Corporation) using a condenser which focused the light into a trifurcated fiberoptic bundle. A collimating lens was placed at the end of each fiberoptic in order to focus the image of the fiberoptic bundle on the treatment area: a spot of […] (1.33 cm^2). The design of the fiberoptic bundle ensured uniform distribution of light over this area. The output spectrum of the arc lamp was tuned to a peak intensity of 630 nm (602-670 nm range) using a water filter, a heat reflecting filter, and a 610 nm long pass filter. Light was delivered at a power density of 135 mW/cm^2. The possibility of tissue hyperthermia induced by this power density was evaluated by placing thermocouples at selected depths into the tumor during treatment, and measuring any temperature rise. No increase in tumor temperature greater than 2.4° C. (final temperature of 37.5°C.) was observed. During the light treatment the mice were restrained without anesthesia in specially designed holders and the tumors and surrounding skin were exposed to light to different degrees, from 0 to 600 J/cm^2. […]
In the course of the experiment the porphyrin fluorescence at 650 nm of the tumors (on exposure to fluorescing-inducing light at 630 nm) was measured with a fluorescence photometer.

A word on the LD50: it is the dose at which mortality reaches 50%. A lower LD50 goes with greater toxicity. Turning to `Cc1nn(-c2cc(NS(C)(=O)=O)c(Cl)cc2Cl)c(=O)n1C(F)F` [Agent 6c], in data set [1], the 50% lethal dose (LD50) at 336 h was above 2600 mg/kg. For the same compound, in the data set on male Fisher 344 rat, the “Proto IX level in muscle tissue” value is reported as “only a small increase”; the “Proto IX levels in kidney, intestine, stomach and brain” value is reported as “marked increases”; the “Proto IX levels in tissues as compared to a control” value is given as “increased levels of Proto IX as compared to a control”. Also, in the data set with HeLa cells, the activation at 100 µM turned out to be 297%. Also, the “mice with tumors cured (tumor free at 35 days post-treatment)” value in the data set on SMT-F tumor (4000 ppm in feed for three days, 450 J/cm^2 of light) is listed as “about 33%”. Further, in the data set with SMT-F tumor (agent in feed), the “porphyrin fluorescence of the tumors at 650 nm” value is listed as “All animals showed an increase in tumor fluorescence”. Moreover, the “tumor regrowth between 35 and 91 days post-treatment” value in the data set with SMT-F tumor (mouse, in vivo) is “No tumor regrowth”.

The values are drawn from patent US5298502A, “Method and composition for photodynamic treatment and detection of tumors” (priority 1991, dated 1994).
